Data on 6 molecules can be found in patent publication US20260077071A1, “Targeted Delivery of Theranostic Agents” (Peter MacCallum Cancer Institute, priority 2022, published 2026).

Read-outs that look alike come from different tables or passages of the source. Square brackets hold non-standard residues; d marks the D form. Peptide text beside a SMILES is read from it. * marks the point of attachment. DOTA = O=C(O)CN1CCN(CC(=O)O)CCN(CC(=O)*)CCN(CC(=O)O)CC1; Phe(3,4-F2) = N[C@@H](Cc1ccc(F)c(F)c1)C(=O)O; Phe(4-NH2) = Nc1ccc(C[C@H](N)C(=O)O)cc1; Phe(4-F) = N[C@@H](Cc1ccc(F)cc1)C(=O)O; 1Nal = N[C@@H](Cc1cccc2ccccc12)C(=O)O; NMeNle = CCCC[C@H](NC)C(=O)O; Sar = CNCC(=O)O

For this experiment, the target named is T1, human full-length CCK-2 receptor (Homo sapiens, UniProt P32239).
T1 construct: stably transfected to over-express the human full-length CCK-2 receptor (A431-CCK-2R); expressed in transfected cells
T1 sequence (P32239 1-447): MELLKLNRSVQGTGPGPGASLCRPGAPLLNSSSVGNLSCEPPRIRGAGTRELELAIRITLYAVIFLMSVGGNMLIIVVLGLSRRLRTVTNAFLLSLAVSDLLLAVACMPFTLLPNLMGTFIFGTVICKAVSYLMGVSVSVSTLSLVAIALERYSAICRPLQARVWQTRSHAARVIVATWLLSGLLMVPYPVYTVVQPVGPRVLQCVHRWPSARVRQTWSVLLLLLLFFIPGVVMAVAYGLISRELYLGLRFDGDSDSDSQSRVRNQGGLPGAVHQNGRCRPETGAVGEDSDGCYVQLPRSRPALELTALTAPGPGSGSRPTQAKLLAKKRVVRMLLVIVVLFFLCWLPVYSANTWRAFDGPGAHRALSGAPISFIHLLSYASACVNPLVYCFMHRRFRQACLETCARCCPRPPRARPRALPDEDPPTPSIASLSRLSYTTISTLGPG
The experiment is described as follows: Competitive ligand binding against [^177Lu]Lu-DOTA-CP04 in A431-CCK-2R cells. How it is done:
CCK-2 receptor binding experiments were conducted using A431 (human epidermoid carcinoma) cells stably transfected to over-express the human full-length CCK-2 receptor (A431-CCK-2R). As a negative control, A431 cells stably transfected with an empty vector were analysed simultaneously (A431-EV). A431 cells were maintained in DMEM (Gibco, Australia) media supplemented with 10% foetal calf serum and 250 μg/mL G418 as described previously (Aloj L, et al., J Nucl Med., 2004, Mar; 45(3), 485-94). The affinity of peptides for the CCK-2R was evaluated using competitive binding assays against [^177Lu]Lu-DOTA-CP04 in A431-CCK-2R cells. Briefly, 48 h before the experiment cells were plated at a density of 650,000 cells per well in 6 well plates. On the day of the experiment the peptides were diluted in DMEM supplemented with 1% foetal calf serum to at least 7 different concentrations (0-400 nM) and approximately 50,000 cpm of [^177Lu]Lu-DOTA-CP04 was added to each dilution. Cells were washed twice in ice-cold binding buffer (DMEM supplemented with 1% foetal calf serum) and resuspended in 1.5 mL of the pre-prepared compound mix before being incubated at 37° C. for 1 h. Post-incubation the media was removed and kept for analysis (unbound fraction) and the cells were washed twice in ice-cold binding buffer, which was pooled with the unbound fraction. Finally, 1 M NaOH was added to the cells and allowed to incubate for 5 min before lysates were collected (bound fraction). A small volume of lysate was kept aside to determine protein concentration using the Pierce® BCA protein assay kit (Thermo Fisher, Australia). All samples were analysed using the Perkin Elmer 2480 Wizard2™ gamma counter (PerkinElmer, Massachusetts, USA) and were normalised according to protein concentration. Half-maximal inhibitory concentrations (IC50) were determined using nonlinear regression calculated using GraphPad Prism Software (GraphPad Software, California, USA).
The compounds were evaluated for their ability to disrupt the binding between CCK-2 receptor (CCK-2R) and [^177Lu]Lu-DOTA-CP04 using the methodology described above and compared to comparative example-2 (FIG. 2; Table 5).

The mark [1] stands for this setting: substituted-phenylalanine peptides based on Cmp ex-1 (Table 3), read-out: IC50.
[2] abbreviates: ^natGa chelated DOTA-compounds based on Peptide C (Table 5), read-out: IC50.

On to `CCCC[C@@H](C(=O)N[C@@H](CC(=O)O)C(=O)N[C@@H](Cc1ccc(N)cc1)C(N)=O)N(C)C(=O)[C@H](Cc1c[nH]c2ccccc12)NC(=O)CN(C)C(=O)[C@H](Cc1ccc(O)cc1)NC(=O)[C@H](C)NC(=O)[C@@H](CCC(=O)O)NC(=O)[C@@H](CCC(=O)O)NC(=O)[C@@H](CCC(=O)O)NC(=O)[C@@H](CCC(=O)O)NC(=O)[C@@H](CCC(=O)O)NC(=O)[C@H](N)CCC(=O)O` [K] (H-[dE][dE][dE][dE][dE][dE]AY[Sar]W[NMeNle]D[Phe(4-NH2)]-NH2; N-terminus assumed), for which the IC50 under setting [1] is 0.52 nM.

As for `CCCC[C@@H](C(=O)N[C@@H](CC(=O)O)C(=O)N[C@@H](Cc1ccccc1)C(N)=O)N(C)C(=O)[C@H](Cc1c[nH]c2ccccc12)NC(=O)CN(C)C(=O)[C@H](Cc1ccc(O)cc1)NC(=O)[C@H](C)NC(=O)[C@@H](CCC(=O)O)NC(=O)[C@@H](CCC(=O)O)NC(=O)[C@@H](CCC(=O)O)NC(=O)[C@@H](C)NC(=O)[C@@H](CCC(=O)O)NC(=O)[C@@H](CCC(=O)O)NC(=O)CN1CCN(CC(=O)O)CCN(CC(=O)O)CCN(CC(=O)O)CC1` [^natGa-3, metal not drawn] ({DOTA}-[dE][dE][dA][dE][dE][dE]AY[Sar]W[NMeNle]DF-NH2), the IC50 under setting [2] is 0.042 nM.

For the molecule `CCCC[C@@H](C(=O)N[C@@H](CC(=O)O)C(=O)N[C@@H](Cc1cccc2ccccc12)C(N)=O)N(C)C(=O)[C@H](Cc1c[nH]c2ccccc12)NC(=O)CN(C)C(=O)[C@H](Cc1ccc(O)cc1)NC(=O)[C@H](C)NC(=O)[C@@H](CCC(=O)O)NC(=O)[C@@H](CCC(=O)O)NC(=O)[C@@H](CCC(=O)O)NC(=O)[C@@H](C)NC(=O)[C@@H](CCC(=O)O)NC(=O)[C@@H](CCC(=O)O)NC(=O)CN1CCN(CC(=O)O)CCN(CC(=O)O)CCN(CC(=O)O)CC1` [^natGa-1, metal not drawn] ({DOTA}-[dE][dE][dA][dE][dE][dE]AY[Sar]W[NMeNle]D[1Nal]-NH2), the IC50 under setting [2] came to 0.08 nM.

Consider `CCCC[C@@H](C(=O)N[C@@H](CC(=O)O)C(=O)N[C@@H](Cc1ccc(F)c(F)c1)C(N)=O)N(C)C(=O)[C@H](Cc1c[nH]c2ccccc12)NC(=O)CN(C)C(=O)[C@H](Cc1ccc(O)cc1)NC(=O)[C@H](C)NC(=O)[C@@H](CCC(=O)O)NC(=O)[C@@H](CCC(=O)O)NC(=O)[C@@H](CCC(=O)O)NC(=O)[C@@H](C)NC(=O)[C@@H](CCC(=O)O)NC(=O)[C@H](N)CCC(=O)O` [Peptide S] (H-[dE][dE][dA][dE][dE][dE]AY[Sar]W[NMeNle]D[Phe(3,4-F2)]-NH2; N-terminus assumed), for which the IC50 is 2.66 ± 0.226 nM.

For `CCCC[C@@H](C(=O)N[C@@H](CC(=O)O)C(=O)N[C@@H](Cc1ccc(F)cc1)C(N)=O)N(C)C(=O)[C@H](Cc1c[nH]c2ccccc12)NC(=O)CN(C)C(=O)[C@H](Cc1ccc(O)cc1)NC(=O)[C@H](C)NC(=O)[C@@H](CCC(=O)O)NC(=O)[C@@H](CCC(=O)O)NC(=O)[C@@H](CCC(=O)O)NC(=O)[C@@H](CCC(=O)O)NC(=O)[C@@H](CCC(=O)O)NC(=O)[C@H](N)CCC(=O)O` [G] (H-[dE][dE][dE][dE][dE][dE]AY[Sar]W[NMeNle]D[Phe(4-F)]-NH2), under setting [1], the IC50 was 0.92 nM.

As for `CCCC[C@@H](C(=O)N[C@@H](CC(=O)O)C(=O)N[C@@H](Cc1ccc(F)cc1)C(N)=O)N(C)C(=O)[C@H](Cc1c[nH]c2ccccc12)NC(=O)CN(C)C(=O)[C@H](Cc1ccc(O)cc1)NC(=O)[C@H](C)NC(=O)[C@@H](CCC(=O)O)NC(=O)[C@@H](CCC(=O)O)NC(=O)[C@@H](CCC(=O)O)NC(=O)[C@@H](C)NC(=O)[C@@H](CCC(=O)O)NC(=O)[C@H](N)CCC(=O)O` [O] (H-[dE][dE][dA][dE][dE][dE]AY[Sar]W[NMeNle]D[Phe(4-F)]-NH2; N-terminus assumed), the IC50 (modified peptides based on Peptide C (Table 4), read-out: IC50) is 0.368 ± 0.04 nM.

The term IC50 denotes the concentration that inhibits the measured activity by half.
